Reference: patent US11970462B1, “Ethyl 3-[4,4-bis(4-chlorophenyl)-2,5-dioxoimidazolidin-1-yl]propanoate as an antimicrobial compound” (KING FAISAL UNIVERSITY, priority 2024, dated 2024)

Experiments:
Type in all cases: cell-based
Details in all cases: after 10, 20, 40 and 60 minutes at all dilutions 1:100, 1:200, 1:400, 1:800
[1] = test system: Pseudomonas aeruginosa; assay: Antimicrobial testing by agar dilution, Ps. aeruginosa
Protocol: (§1) The antimicrobial properties of the ethyl 3-[4,4-bis(4-chlorophenyl)-2,5-dioxoimidazolidin-1-yl]propanoate were studied by the method of agar dilution. Test solutions of each compound was prepared in concentration of 1% using dimethylformamide as a solvent then they are diluted in physiological solution to obtain the final experimental dilutions 1:100, 1:200, 1:400, 1:800. The effect of these substances are compared with furacillin in a controlable study. The testing microbes used were gram positive bacteria Staphylococcus aereus, gram negative bacteria Escherichia Coli, Pseudomonas aeruginosa and Candida albicans fungi were taken. The experiments used for this survey were meat-pentonlu agar (EPA) for cultivation of bacteria and Saburo environment for fungi. Each experiment used 1 ml of test solution on each plate 500 min. Add 2 drops of emulsified with microbes feel. All experimental samples were taken from the agar after 10, 20, 40, 60 minutes in the environment on the basis of Patrk planted. Bacteria were cultivated at a temperature of 37° C. for 1 day and the mushroom was kept in a thermostat for 2 hours at a temperature of 28° C. in the. Then results were checked.

[2] = test system: Escherichia Coli; assay: Antimicrobial testing by agar dilution, E. Coli
Protocol: as §1

[3] = test system: Staphylococcus aereus; assay: Antimicrobial testing by agar dilution, St. Aereus
Protocol: as §1

[4] = test system: Candida albicans; assay: Antimicrobial testing by agar dilution, Candida albicans
Protocol: as §1

CCOC(=O)CCN1C(=O)NC(c2ccc(Cl)cc2)(c2ccc(Cl)cc2)C1=O [ethyl 3-[4,4-bis(4-chlorophenyl)-2,5-dioxoimidazolidin-1-yl]propanoate]
higher inhibition activity: inhibition activity (in words), Pseudomonas aeruginosa [1] | inhibition activity (in words), Escherichia Coli [2] | inhibition activity (in words), Staphylococcus aereus [3] | inhibition activity (in words), Candida albicans [4]
